Experimental data from patent publication EP0937460A2, “Use of an antidiarrheal for the manufacture of a medicament for the treatment of inflammatory conditions” (Adolor Corporation, priority 1994, dated 1995).
Counter-ions that a name gives are not always drawn. Like-named read-outs stand apart in the source and are kept apart here.

Tests used:
TNF production [1] = assay: Inhibition of TPA-stimulated TNF production in human epidermal keratinocytes (ELISA); assay type: cell-based; conditions: for activity at 10 µM: epidermal keratinocytes, read-out: TNF LEVEL % Control (LPS alone), Ave. ± S.D.; for effect on TPA-stimulated levels of TNF (in words): human keratinocytes
TNF production [2] = assay: Inhibition of LPS-stimulated TNF production in the human monocytic cell line THP-1 (ELISA); assay type: cell-based; conditions: for activity at 10 µM / inhibition at 10 µM: Homo sapiens; for activity at 10 µM: read-out: TNF LEVEL % Control (LPS alone), Ave. ± S.D.; for inhibition at 10 µM: drug 10 µM
Description: Cultures were maintained by the addition of fresh growth medium to a T-75 or T-150 flask of cells in suspension, or by pelleting the cells and re-suspending them in the appropriate volume of fresh medium. Maximum cell density was 1.0 x 10^6 cells per mL and cultures were seeded at a minimum density of 0.2 x 10^6 cells per ml.
(§1) THP-1 cells were plated into 24-well plates at a density of 1.0 x 10^6 cells per mL in 0.5 mL medium per well. […] For measurement of IL-1α and IL-1β production, THP-1 cells were incubated with 500 ng/mL or 50 ng/mL LPS and incubated for 16 hours. Levels of secreted cytokine were measured in cell supernatants as for TNF. Cell-associated species were measured in cell lysates which were prepared by repetitive freeze-thawing of cells. For in vitro screening, drugs at 10 µM concentration were co-administered with LPS. […] Drug effects on cell viability were assessed by the MTT assay. […] Water-soluble drugs were dissolved in aqueous solutions such as RPMI or deionized H20. The final concentration of DMSO in the incubation medium was at or below 0.01% and that of ethanol was at or below 0. 1%. The effect on cell viability was evaluated by the MTT assay.

TNF production [3] = assay: Inhibition of LPS-stimulated TNF production in the mouse macrophage line RAW 264.7 (ELISA); assay type: cell-based; conditions: for activity at 10 µM: RAW264.7, 6 h, read-out: TNF LEVEL % Control (LPS alone), Ave. ± S.D.
Description: Cells were passaged at confluence by scraping and routinely plated at a density of 0.25 x 10^6 and 0.5 x 10^6 cells per T-75 and T-150, respectively.
Typically, RAW cells were plated at 0.25 x 10^6 cells per well of a 24-well plate, in 0.5 mL media per well on the day prior to experimentation. […] 1%. Drugs were co-administered with the stimulant, LPS. After a 6-hr incubation period with LPS ± drug (n = 3-4), the media from the experimental wells was harvested, the cells were removed by microcentrifugation, and the media assayed for TNF by ELISA. Drugs were screened at 10 µM for their ability to alter TNF production by cells stimulated with 1 µg/mL or 10 ng/mL LPS. Dexamethasone, an anti-inflammatory corticosteroid, served as the reference for inhibition of the LPS response.

THP-1 cells = assay: MTT assay of THP-1 cell viability; conditions: highest dose tested
Description: as §1

hairless mice = test system: hairless mice
Description: In addition to assessing the cytokine mRNA levels, the time course of the TPA-induced increase in skin thickness was also evaluated. This measurement was made with a micrometer using skin excised from euthanized mice. […] Further increases were typically seen 8 hours with this response being maintained through the 24 hour time point.
Three of the mice were euthanized at the 3 hour time point, and the treated sites were analyzed for TNF mRNA by RT-PCR. The fourth mouse was euthanized at a 24 hour time point, and the thickness of the treated areas of skin was measured using a micrometer.
At the 8 hours time point, the mice were euthanized, the treated areas of skin were excised, and the thickness of the skin was measured using a micrometer.

[4] = Homo sapiens, HEK cells, DRUG [10 µM], stimulation by TPA 10 ng/mL
[5] = 6 h, THP-1 cells, DRUG [10 µM], LPS 1 µg/mL
[6] = Mus musculus, RAW cells, DRUG [10 µM], LPS at 10 ng/mL

With `COC(=O)C1=C(C)NC(C)=C(C(=O)OC(C)C)C1c1cccc2nonc12` (stereo not shown) [Isradipine, 3,5-Pyridinecarboxylic acid, 4-(4-benzofurazanyl)-l,4-dihydro-2,6-dimethyl, methyl 1-methylethyl ester] the activity at 10 µM (TNF production [1]; [4]) was 60 ± 7%, the activity at 10 µM (TNF production [2]; [5]) was 77 ± 8% and the “effectiveness against LPS-stimulated TNF production (in words)” value (“effectiveness” for short) (TNF production [2]; LPS-stimulated THP-1 cells, 10 µM) was “much less effective”. The “effectiveness” value (TNF production [3]; RAW cells, drug 10 µM) was “as effective as dexamethasone”.

`CN(C)C(=O)C(CCN1CCC(O)(c2ccc(Cl)cc2)CC1)(c1ccccc1)c1ccccc1` [Loperamide, 4-(p-chlorophenyl)-4-hydroxy-N,N-dimethyl-α, α-diphenyl-1-piperidine butyramide HCL] was tested, and the “effect on TPA-stimulated levels of TNF (in words)” value (TNF production [1]; TPA 10 ng/mL, drug 10 µM) was “very effective”, the activity at 10 µM (TNF production [2]; THP-1, 6 h) was 42 ± 22% and the inhibition at 10 µM (TNF production [2]; THP-1, read-out: inhibition of TNF production, LPS-stimulated THP-1 cells) was roughly 42%. The “THP-1 cell viability (MTT assay)” value (THP-1 cells) was “did not impact”, the skin thickness (hairless mice; TPA + loperamide 7.5% solution topical, 8 hour, first experiment (vehicle 0.36 mm, TPA 0.56 mm)) was 0.39 mm and the skin thickness (hairless mice; TPA + loperamide topical, second experiment (vehicle 0.39 mm, TPA 0.89 mm), p<0.01 vs. TPA alone) was 0.57 mm. The “thickness of skin treated with drug alone compared to vehicle-treated skin” value (hairless mice; loperamide 7.5% alone, no TPA) was “unchanged”, the “inhibition of the TPA-induced swelling response” value (hairless mice; loperamide topical, second experiment) was 64% and the “TPA-induced increase in skin thickness / swelling response (in words)” value (hairless mice; topical application, loperamide: 8 hour time point, first experiment) was “completely inhibit”. For the same compound, the activity at 10 µM (TNF production [3]; Mus musculus) was 62 ± 32%, the inhibition at 10 µM (TNF production [3]; Mus musculus, RAW264.7, read-out: inhibition of LPS-stimulated TNF secretion) was 62% and the “effectiveness” value (TNF production [3]; RAW cells, drug 10 µM) was “lowering of TNF levels”.

For `C[C@@H]1C[C@H]2[C@@H]3CCC4=CC(=O)C=C[C@]4(C)[C@@]3(F)[C@@H](O)C[C@]2(C)[C@@]1(O)C(=O)CO` [Dexamethasone, dexamethasone], the inhibition at 10 µM (TNF production [1]; Homo sapiens, Keratinocyte, keratinocytes, TPA 10 ng/mL, drug 10 µM, read-out: inhibition of the response to TPA (TNF production)) was greater than 55%, the activity at 10 µM (TNF production [1]; [4]) was 48 ± 12% and the activity at 10 µM (TNF production [2]; [5]) was 33 ± 14%. The inhibition at 10 µM (TNF production [2]; LPS-stimulated THP-1 cells, read-out: inhibition of TNF production) was 67%, the activity at 10 µM (TNF production [3]; [6]) was 39 ± 27% and the “inhibition of the stimulated production of TNF (decrease of secreted TNF vs LPS alone)” value (TNF production [3]; RAW cells, drug 10 µM, LPS dose not stated) was 60%.

In the case of `O=C1CCC(N2C(=O)c3ccccc3C2=O)C(=O)N1` (stereo not shown) [Thalidomide], the activity at 10 µM (TNF production [1]; [4]) is reported as no less than 100%, the activity at 10 µM (TNF production [2]; [5]) is reported as 78 ± 9% and the activity at 10 µM (TNF production [3]; [6]) is reported as 67 ± 37%.

For `NC(N)=NC(=O)c1nc(Cl)c(N2CCCCCC2)nc1N` [hexamethylamiloride], the “effect on TPA-stimulated levels of TNF (in words)” value (TNF production [1]; TPA 10 ng/mL, drug 10 µM) was “several fold higher” and the “effectiveness” value (TNF production [3]; RAW cells, drug 10 µM) was “tremendous decrease”.

`COC(=O)C1=C(C)NC(C)=C(C(=O)OC)C1c1ccccc1[N+](=O)[O-]` [Nifedipine] was tested, and the activity at 10 µM (TNF production [1]; [4]) was 88 ± 40%, the activity at 10 µM (TNF production [2]; [5]) was 119% and the activity at 10 µM (TNF production [3]; [6]) was 79 ± 24%.

For `CC(C)(C)NCC(O)c1cc(O)cc(O)c1` (stereo not shown) [Terbutaline, terbutaline], the activity at 10 µM (TNF production [1]; [4]) was 36 ± 8%, the activity at 10 µM (TNF production [2]; [5]) was 12 ± 4% and the activity at 10 µM (TNF production [3]; [6]) was 33 ± 9%.

Work on `CCOC(=O)C1(c2ccccc2)CCN(CCC(C#N)(c2ccccc2)c2ccccc2)CC1` [Diphenoxylate, diphenoxylate] yielded an activity at 10 µM (TNF production [1]; Homo sapiens) of 68 ± 10%.

With `NCC(O)c1ccc(O)c(O)c1` (stereo not shown) [Arterenol] the “TNF LEVEL % Control (LPS alone); Ave. ± S.D.” value (from here on “TNF LEVEL % Control”) (TNF production [1]; HEK cells, DRUG [10 µM], stimulation by TPA 10 ng/mL) was 47±10 % Control, the “TNF LEVEL % Control” value (TNF production [2]; THP-1 cells, DRUG [10 µM], LPS 1 µg/mL) was 1±0.2 % Control and the “TNF LEVEL % Control” value (TNF production [3]; RAW cells, DRUG [10 µM], LPS at 10 ng/mL) was 38±4 % Control.

`COCCOC(=O)C1=C(C)NC(C)=C(C(=O)OC(C)C)C1c1cccc([N+](=O)[O-])c1` (stereo not shown) [Nimodipine, nimodipine] gave an activity at 10 µM (TNF production [1]; [4]) of 15 ± 3%, an activity at 10 µM (TNF production [2]; [5]) of 81 ± 4% and an activity at 10 µM (TNF production [3]; [6]) of 37 ± 3%.
